The results in this text go back to PubChem BioAssay (NCI).

Each structure is given as a SMILES string.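 Test compounds were applied to cells in 96-well plates for 48 hours at 5 doses. The concentration for 50% growth inhibition is given as GI50. TGI: concentration producing complete growth inhibition.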

Test systems include CCRF-CEM leukemia; LOX IMVI melanoma; HOP-92 NSCLC; HOP-18 NSCLC; HT29 colon; SN12C renal; KM12 colon; 786-0 renal; SK-MEL-5 melanoma; DMS 114 small cell lung; SNB-78 CNS.
Holding throughout (assay): NCI anticancer screen, dose series, 48 h

On to `Nc1nc(Cl)cc(NCCCCCCNc2cc(Cl)nc(N)n2)n1`, for which the TGI in the experiment on CCRF-CEM leukemia, in the experiment on LOX IMVI melanoma, in the experiment on HOP-92 NSCLC, in the experiment on HOP-18 NSCLC, in the experiment with HT29 colon and with SN12C renal was greater than 100 µM in each case. The TGI in the experiment with KM12 colon, in the experiment with 786-0 renal and in the experiment on SK-MEL-5 melanoma was greater than 100 µM in each case.
`COc1cc(/C=C2/C(=O)N(C(=O)c3ccccc3O)N=C2C)ccc1O`: the TGI with CCRF-CEM leukemia is greater than 100 µM; with LOX IMVI melanoma, greater than 70.6 µM; in the experiment with HOP-92 NSCLC it was greater than 100 µM; in the experiment with DMS 114 small cell lung, 7.73 µM; with HT29 colon, greater than 100 µM; with SN12C renal, greater than 39.1 µM. Moreover, the TGI was greater than 100 µM in the experiment with KM12 colon, greater than 100 µM in the experiment with 786-0 renal and greater than 42.1 µM in the experiment with SK-MEL-5 melanoma.
`Cc1cc(N(CCC#N)CCC#N)ccc1/C=C/C(=O)Nc1ccccc1Cl`: the TGI in the experiment with CCRF-CEM leukemia, in the experiment on LOX IMVI melanoma, in the experiment with HOP-92 NSCLC, in the experiment on DMS 114 small cell lung, in the experiment on HT29 colon and with SN12C renal was greater than 100 µM each time. Besides, the TGI with KM12 colon, in the experiment with 786-0 renal and in the experiment with SK-MEL-5 melanoma was greater than 100 µM in each case.
As to `CCCCOP1(=O)C=CC(Cl)=C(C)C1` (stereo not given), the TGI was 35 µM in the experiment with CCRF-CEM leukemia; 54.5 µM in the experiment on HOP-92 NSCLC; greater than 100 µM with HOP-18 NSCLC; 71.7 µM with DMS 114 small cell lung; 45 µM with HT29 colon; 49.8 µM with SN12C renal. Moreover, the TGI in the experiment with KM12 colon came out at 46.6 µM; with 786-0 renal it was 49.3 µM.
As to `O=C(O)C(CS)N=Cc1nc(-c2ccccc2)oc1O` (stereo not given), the TGI with CCRF-CEM leukemia, with LOX IMVI melanoma, in the experiment on HOP-92 NSCLC, with DMS 114 small cell lung, in the experiment on HT29 colon and with SN12C renal was greater than 100 µM in each case. Further, the TGI in the experiment on 786-0 renal, with SNB-78 CNS and with SK-MEL-5 melanoma was greater than 100 µM throughout.
As for `CCCC/C=C1\CCC(CN2CCCC2)C1=O` (stereo not given), the TGI was 25 µM in the experiment on CCRF-CEM leukemia; 21.7 µM with LOX IMVI melanoma; 31.1 µM in the experiment with HOP-92 NSCLC; 31.8 µM in the experiment with DMS 114 small cell lung; 31.5 µM in the experiment on HT29 colon; 32 µM in the experiment with SN12C renal. Besides, the TGI in the experiment on KM12 colon came to 8.28 µM; in the experiment on 786-0 renal it was 3.62 µM; with SNB-78 CNS, 57.2 µM; with SK-MEL-5 melanoma, 31.1 µM.
For the compound `CCC1(Cl)C(=O)NC(=O)N(C2CC(O)C(CO)O2)C1N=[N+]=[N-]` (stereo not given), the TGI with CCRF-CEM leukemia, in the experiment with LOX IMVI melanoma, in the experiment on HOP-92 NSCLC, in the experiment on DMS 114 small cell lung, in the experiment with HT29 colon and in the experiment with SN12C renal was greater than 100 µM throughout. Besides, the TGI in the experiment with 786-0 renal, with SNB-78 CNS and in the experiment with SK-MEL-5 melanoma was greater than 100 µM throughout.
With `CC[C@H](C)[C@H](NC(=O)N[C@@H](C)c1ccccc1)C(=O)N(C)[C@H](C[C@@H](OC(C)=O)c1nc(C(=O)N[C@@H](Cc2ccccc2)C[C@H](C)C(=O)OC)cs1)C(C)C`, the GI50 in the experiment with CCRF-CEM leukemia is 23.9 µM; in the experiment with LOX IMVI melanoma, 30.9 µM; in the experiment with HOP-92 NSCLC, 11100 nM; with HT29 colon, 28.3 µM; in the experiment on SN12C renal, 48.8 µM; with KM12 colon, 17.2 µM. In addition, the figures for the GI50 in the experiment with 786-0 renal and with SK-MEL-5 melanoma were 22.9 µM and 13.1 µM, respectively. For the same compound, the TGI is greater than 100 µM in the experiment with CCRF-CEM leukemia; greater than 100 µM in the experiment with LOX IMVI melanoma; 90.5 µM in the experiment on HOP-92 NSCLC; greater than 100 µM in the experiment on HT29 colon; greater than 100 µM in the experiment on SN12C renal; 84.3 µM in the experiment with KM12 colon. Besides, the TGI in the experiment on 786-0 renal came out at 82.2 µM; with SK-MEL-5 melanoma, 40.2 µM.
On to `COc1ccc(-c2nn(-c3cccc(Cl)c3)cc2-c2cc(-c3cccs3)no2)cc1`, for which the GI50 is 3.84 µM with CCRF-CEM leukemia; 3.04 µM in the experiment on LOX IMVI melanoma; 1610 nM in the experiment on HOP-92 NSCLC; 3.85 µM with HT29 colon; 3.48 µM in the experiment with SN12C renal; 2.98 µM with KM12 colon. Also, the GI50 in the experiment on 786-0 renal was 3.39 µM; with SK-MEL-5 melanoma, 4.74 µM. Further, the TGI is greater than 100 µM in the experiment on CCRF-CEM leukemia; 10.9 µM in the experiment with LOX IMVI melanoma; 8.13 µM with HOP-92 NSCLC; 15.1 µM in the experiment on HT29 colon; 18.7 µM in the experiment with SN12C renal; 11.1 µM in the experiment with KM12 colon. The values for the TGI in the experiment on 786-0 renal and with SK-MEL-5 melanoma were greater than 100 µM and 17.3 µM, respectively.
For the compound `Cc1ccc(NCCNCC(O)CO)c2c(=O)c3ccccc3sc12` (stereo not given), the GI50 with CCRF-CEM leukemia is 1.86 µM; with LOX IMVI melanoma, 1.43 µM; with HOP-92 NSCLC, 1980 nM; in the experiment with HT29 colon, 1.41 µM; in the experiment with SN12C renal it was 1.32 µM; in the experiment with KM12 colon, 1.74 µM. For the same compound, the GI50 in the experiment with 786-0 renal is 1.37 µM; in the experiment with SK-MEL-5 melanoma, 1.57 µM. The TGI with CCRF-CEM leukemia turned out to be 4.55 µM; in the experiment on LOX IMVI melanoma, 2.84 µM; with HOP-92 NSCLC, 7.81 µM; in the experiment on HT29 colon it was 3.04 µM; with SN12C renal it was 3.19 µM; in the experiment with KM12 colon, 3.6 µM. Further, the TGI in the experiment with 786-0 renal came to 2.79 µM; in the experiment on SK-MEL-5 melanoma, 2.93 µM.
For the compound `COc1cc(/C=C2\C(=O)Nc3ccc(Br)cc32)cc(OC)c1OC`, the GI50 in the experiment with CCRF-CEM leukemia was 4.82 µM; in the experiment on LOX IMVI melanoma it was 10.6 µM; with HOP-92 NSCLC, 2680 nM; with HT29 colon, 3.82 µM; in the experiment with SN12C renal, greater than 93.8 µM; in the experiment on KM12 colon it was 3.33 µM. The GI50 is 27.2 µM in the experiment on 786-0 renal and 6.33 µM in the experiment with SK-MEL-5 melanoma. Moreover, the TGI was greater than 100 µM in the experiment with CCRF-CEM leukemia; greater than 100 µM in the experiment with LOX IMVI melanoma; 24.8 µM in the experiment with HOP-92 NSCLC; greater than 100 µM with HT29 colon; greater than 100 µM in the experiment with SN12C renal; greater than 92.4 µM in the experiment on KM12 colon. Further, the TGI in the experiment with 786-0 renal and with SK-MEL-5 melanoma was greater than 100 µM in each case.
As to `N=C(N)SCC(=O)O`, the TGI in the experiment with CCRF-CEM leukemia, in the experiment with LOX IMVI melanoma, in the experiment on HOP-92 NSCLC, with HT29 colon, in the experiment with SN12C renal and with KM12 colon was greater than 100 µM each time. The TGI with 786-0 renal and in the experiment with SK-MEL-5 melanoma was greater than 100 µM throughout.
